Results taken from patent US9833497B2, “Human originated EGF domain proteins and use of the same” (CHENGDU SOURCEBIO LIMITED-LIABILITY COMPANY, priority 2013, dated 2017).

Legend:
Type in all cases: cell-based
Pseudomonas aeruginosa = test: MIC against Gram-negative bacteria: Pseudomonas aeruginosa; conditions: 5×10^5 CFU/mL; for MIC (μg/mL) P. aeruginosa: 10 h cultivation at 37° C.; for MIC P. aeruginosa / MIC against P. aeruginosa: 96-well plate, 37° C., 10 h
Procedure, shortened: (§1)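 Antibacterial activity of purified human EGF domain proteins: two-fold concentration series, triplicate wells, LB broth, 5×10^5 CFU/mL bacteria, 37° C shaking incubation. The lowest concentration without growth defines the MIC.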

Enterobacter cloacae = test: MIC against Gram-negative bacteria: Enterobacter cloacae; conditions: 5×10^5 CFU/mL; for MIC (μg/mL) E. cloacae: 10 h cultivation at 37° C.; for MIC E. cloacae / MIC against E. cloacae: 96-well plate, 37° C., 10 h
Procedure, shortened: as §1

Citrobacter diversus = test: MIC against Gram-negative bacteria: Citrobacter diversus; conditions: 5×10^5 CFU/mL; for MIC (μg/mL) C. diversus: 10 h cultivation at 37° C.; for MIC C. diversus / MIC against C. diversus: 96-well plate, 37° C., 10 h
Procedure, shortened: as §1

Proteus vulgaris = test: MIC against Gram-negative bacteria: Proteus vulgaris; conditions: 5×10^5 CFU/mL; for MIC (μg/mL) P. vulgaris: 10 h cultivation at 37° C.; for MIC P. vulgaris / MIC against P. vulgaris: 96-well plate, 37° C., 10 h
Procedure, shortened: as §1

Aeromonas hydrophila = test: MIC against Gram-negative bacteria: Aeromonas hydrophila; conditions: 5×10^5 CFU/mL; for MIC (μg/mL) A. hydrophila: 10 h cultivation at 37° C.; for MIC A. hydrophila / MIC against A. hydrophila: 96-well plate, 37° C., 10 h
Procedure, shortened: as §1

Klebsiella pneumonia = test: MIC against Gram-negative bacteria: Klebsiella pneumonia; conditions: 5×10^5 CFU/mL; for MIC (μg/mL) K. pneumonia: 10 h cultivation at 37° C.; for MIC K. pneumonia / MIC against K. pneumonia: 96-well plate, 37° C., 10 h
Procedure, shortened: as §1

E. coli DH5α = test: Antibacterial activity: MIC and growth curve against E. coli DH5α in 96-well plate; conditions: minimal inhibitory concentration against E. coli DH5α; 96-well plate, 5×10^5 CFU/mL, 37° C., judged after 8 h
Procedure, shortened: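 Log-phase bacteria (OD600 ~0.5) resuspended in LB at 5×10^5 CFU/mL, exposed to recombinant protein at 50, 25, 12.5 μg/mL final in triplicate, 37 °C shaking at 175 rpm. OD600 read every 30 min; MIC is lowest concentration showing no growth.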

Serratia marcescens = test: MIC against Gram-negative bacteria: Serratia marcescens; conditions: 5×10^5 CFU/mL; for MIC (μg/mL) S. marcescens: 10 h cultivation at 37° C.; for MIC S. marcescens / MIC against S. marcescens: 96-well plate, 37° C., 10 h
Procedure, shortened: as §1

Proteus mirabilis = test: MIC against Gram-negative bacteria: Proteus mirabilis; conditions: 5×10^5 CFU/mL; for MIC (μg/mL) P. mirabilis: 10 h cultivation at 37° C.; for MIC P. mirabilis / MIC against P. mirabilis: 96-well plate, 37° C., 10 h
Procedure, shortened: as §1

Moraxella catarrhalis = test: MIC against Gram-negative bacteria: Moraxella catarrhalis; conditions: 5×10^5 CFU/mL; for MIC (μg/mL) M. catarrhalis: 10 h cultivation at 37° C.; for MIC M. catarrhalis / MIC against M. catarrhalis: 96-well plate, 37° C., 10 h
Procedure, shortened: as §1

E. coli BL21 = test: MIC against Gram-negative bacteria: E. coli BL21; conditions: 5×10^5 CFU/mL; for MIC (μg/mL) E. coli BL21: 10 h cultivation at 37° C.; for MIC E. coli BL21 / MIC against E. coli BL21: 96-well plate, 37° C., 10 h
Procedure, shortened: as §1

PRT261 (CAHGHGGCSPHANCTKVAPGQRTCTCQDGYMGDGELC; listed as Homo sapiens)
12.5 µg/mL: MIC (μg/mL) P. aeruginosa (Pseudomonas aeruginosa) | MIC (μg/mL) P. vulgaris (Proteus vulgaris) | MIC (μg/mL) A. hydrophila (Aeromonas hydrophila) | MIC (μg/mL) K. pneumonia (Klebsiella pneumonia) | MIC (E. coli DH5α) | MIC (μg/mL) E. coli BL21 (E. coli BL21; E. coli BL21)
50 µg/mL: MIC (μg/mL) E. cloacae (Enterobacter cloacae) | MIC (μg/mL) S. marcescens (Serratia marcescens) | MIC (μg/mL) M. catarrhalis (Moraxella catarrhalis)
25 µg/mL: MIC (μg/mL) C. diversus (Citrobacter diversus) | MIC (μg/mL) P. mirabilis (Proteus mirabilis)

PRT603 (CHCHPQGSKDTVCDQVTGQCPCHGEVSGRRCDRCLAGYFGFPSCHP; listed as Homo sapiens)
12.5 µg/mL: MIC C. diversus (Citrobacter diversus) | MIC K. pneumonia (Klebsiella pneumonia) | MIC S. marcescens (Serratia marcescens) | MIC P. mirabilis (Proteus mirabilis)
25 µg/mL: MIC P. aeruginosa (Pseudomonas aeruginosa) | MIC E. cloacae (Enterobacter cloacae) | MIC (E. coli DH5α)
50 µg/mL: MIC P. vulgaris (Proteus vulgaris) | MIC A. hydrophila (Aeromonas hydrophila) | MIC M. catarrhalis (Moraxella catarrhalis) | MIC E. coli BL21 (E. coli BL21)

PRT787 (RQICDCLNNSTCDHITGTCYCSPGWKGARCD; listed as Homo sapiens)
25 µg/mL: MIC (μg/mL) C. diversus (Citrobacter diversus) | MIC (μg/mL) P. vulgaris (Proteus vulgaris) | MIC (μg/mL) P. mirabilis (Proteus mirabilis)
50 µg/mL: MIC (μg/mL) M. catarrhalis (Moraxella catarrhalis)
12.5 µg/mL: MIC (μg/mL) P. aeruginosa (Pseudomonas aeruginosa) | MIC (μg/mL) E. cloacae (Enterobacter cloacae) | MIC (μg/mL) A. hydrophila (Aeromonas hydrophila) | MIC (μg/mL) K. pneumonia (Klebsiella pneumonia) | MIC (E. coli DH5α) | MIC (μg/mL) S. marcescens (Serratia marcescens) | MIC (μg/mL) E. coli BL21 (E. coli BL21; E. coli BL21)

PRT1198 (EHDECGSGQHNCDENAICTNTVQGHSCTCKPGYVGNGTICR; listed as Homo sapiens)
12.5 µg/mL: MIC against E. cloacae (Enterobacter cloacae; Enterobacter cloacae) | MIC against S. marcescens (Serratia marcescens; Serratia marcescens) | MIC against M. catarrhalis (Moraxella catarrhalis; Moraxella catarrhalis) | MIC against E. coli BL21 (E. coli BL21; E. coli BL21)
25 µg/mL: MIC against P. aeruginosa (Pseudomonas aeruginosa; Pseudomonas aeruginosa) | MIC against C. diversus (Citrobacter diversus; Citrobacter diversus) | MIC against P. vulgaris (Proteus vulgaris; Proteus vulgaris) | MIC (E. coli DH5α)
50 µg/mL: MIC against A. hydrophila (Aeromonas hydrophila; Aeromonas hydrophila) | MIC against K. pneumonia (Klebsiella pneumonia; Klebsiella pneumonia) | MIC against P. mirabilis (Proteus mirabilis; Proteus mirabilis)

PRT714 (HINECLSKKVSGCSQDCQDLPVSYKCKCWPGFQLKDDGKTCV; listed as Homo sapiens)
50 µg/mL: MIC P. vulgaris (Proteus vulgaris) | MIC A. hydrophila (Aeromonas hydrophila) | MIC M. catarrhalis (Moraxella catarrhalis)
12.5 µg/mL: MIC P. aeruginosa (Pseudomonas aeruginosa) | MIC E. cloacae (Enterobacter cloacae) | MIC C. diversus (Citrobacter diversus) | MIC K. pneumonia (Klebsiella pneumonia) | MIC (E. coli DH5α) | MIC S. marcescens (Serratia marcescens) | MIC P. mirabilis (Proteus mirabilis)
25 µg/mL: MIC E. coli BL21 (E. coli BL21)

PRT508 (CECSHLGNNCDPKTGRCICPPNTIGEKCSKCAPNTWGHSITTGCKA; listed as Homo sapiens)
12.5 µg/mL: MIC against E. cloacae (Enterobacter cloacae) | MIC against P. vulgaris (Proteus vulgaris) | MIC (E. coli DH5α) | MIC against P. mirabilis (Proteus mirabilis)
50 µg/mL: MIC against P. aeruginosa (Pseudomonas aeruginosa) | MIC against A. hydrophila (Aeromonas hydrophila) | MIC against M. catarrhalis (Moraxella catarrhalis)
100 µg/mL: MIC against C. diversus (Citrobacter diversus)
25 µg/mL: MIC against K. pneumonia (Klebsiella pneumonia) | MIC against S. marcescens (Serratia marcescens) | MIC against E. coli BL21 (E. coli BL21)

PRT1281 (DLCLSSPCQNQGTCHNDPLEVYRCACPSGYKGRDCE; listed as Homo sapiens)
25 µg/mL: MIC against P. aeruginosa (Pseudomonas aeruginosa; Pseudomonas aeruginosa) | MIC against E. cloacae (Enterobacter cloacae; Enterobacter cloacae)
50 µg/mL: MIC against C. diversus (Citrobacter diversus; Citrobacter diversus) | MIC against K. pneumonia (Klebsiella pneumonia; Klebsiella pneumonia) | MIC (E. coli DH5α) | MIC against S. marcescens (Serratia marcescens; Serratia marcescens) | MIC against P. mirabilis (Proteus mirabilis; Proteus mirabilis)
12.5 µg/mL: MIC against P. vulgaris (Proteus vulgaris; Proteus vulgaris) | MIC against A. hydrophila (Aeromonas hydrophila; Aeromonas hydrophila) | MIC against M. catarrhalis (Moraxella catarrhalis; Moraxella catarrhalis) | MIC against E. coli BL21 (E. coli BL21; E. coli BL21)
